The source made the active and inactive calls.
Legend:
[1] = biological target: T1, DNA repair and recombination protein RAD54-like (Homo sapiens, UniProt Q92698); test: inhibitors of human RAD54 branch migration, confirmation, biochemical, fluorescence, cherry-picked samples, dose series (AID 651657); type: functional
T1 sequence (Q92698 whole entry): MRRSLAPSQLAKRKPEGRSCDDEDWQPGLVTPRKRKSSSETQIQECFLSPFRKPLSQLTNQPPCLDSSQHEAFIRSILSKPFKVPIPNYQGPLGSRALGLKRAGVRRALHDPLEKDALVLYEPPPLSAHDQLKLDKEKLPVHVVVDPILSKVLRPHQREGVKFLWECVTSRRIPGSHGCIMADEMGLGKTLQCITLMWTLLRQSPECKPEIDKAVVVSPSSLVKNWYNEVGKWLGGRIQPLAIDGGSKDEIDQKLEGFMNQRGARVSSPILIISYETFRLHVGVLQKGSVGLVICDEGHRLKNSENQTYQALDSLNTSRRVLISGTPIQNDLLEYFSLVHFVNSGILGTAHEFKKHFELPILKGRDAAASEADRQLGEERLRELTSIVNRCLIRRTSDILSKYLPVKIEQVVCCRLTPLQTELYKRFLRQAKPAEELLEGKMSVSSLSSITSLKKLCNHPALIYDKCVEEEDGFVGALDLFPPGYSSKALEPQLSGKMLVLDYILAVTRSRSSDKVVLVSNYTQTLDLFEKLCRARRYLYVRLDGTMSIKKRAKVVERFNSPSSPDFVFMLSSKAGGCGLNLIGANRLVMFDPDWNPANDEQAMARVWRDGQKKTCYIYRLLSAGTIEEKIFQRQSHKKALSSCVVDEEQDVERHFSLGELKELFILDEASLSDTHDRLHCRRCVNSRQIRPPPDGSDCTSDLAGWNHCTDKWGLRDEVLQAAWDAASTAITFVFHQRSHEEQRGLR

[2] = biological target: T2, DNA repair protein RAD52 homolog (Homo sapiens, UniProt P43351); type: functional, biochemical
T2 sequence (P43351 whole entry): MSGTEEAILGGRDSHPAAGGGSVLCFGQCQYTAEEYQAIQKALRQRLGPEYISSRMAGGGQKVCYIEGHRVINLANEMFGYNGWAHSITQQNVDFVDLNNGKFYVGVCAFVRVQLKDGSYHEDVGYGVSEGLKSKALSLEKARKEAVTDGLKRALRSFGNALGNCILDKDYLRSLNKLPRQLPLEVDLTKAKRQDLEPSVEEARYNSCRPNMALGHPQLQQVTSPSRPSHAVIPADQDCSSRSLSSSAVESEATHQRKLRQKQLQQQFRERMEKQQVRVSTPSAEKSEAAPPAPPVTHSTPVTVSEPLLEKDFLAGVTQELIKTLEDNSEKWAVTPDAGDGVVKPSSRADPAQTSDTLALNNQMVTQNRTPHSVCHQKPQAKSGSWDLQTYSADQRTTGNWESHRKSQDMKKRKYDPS

[3] = biological target: Glyceraldehyde-3-phosphate dehydrogenase (Homo sapiens, UniProt P04406)
Chain of Glyceraldehyde-3-phosphate dehydrogenase (P04406 whole entry): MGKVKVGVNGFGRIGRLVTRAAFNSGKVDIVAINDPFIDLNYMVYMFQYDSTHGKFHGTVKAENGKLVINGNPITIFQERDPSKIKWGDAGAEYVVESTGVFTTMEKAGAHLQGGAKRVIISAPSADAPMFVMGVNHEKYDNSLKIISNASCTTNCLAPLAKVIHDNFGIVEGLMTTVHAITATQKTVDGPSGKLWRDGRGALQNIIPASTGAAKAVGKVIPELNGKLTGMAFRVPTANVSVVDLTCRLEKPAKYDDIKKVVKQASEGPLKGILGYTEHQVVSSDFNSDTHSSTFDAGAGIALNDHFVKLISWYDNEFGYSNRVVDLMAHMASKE

[4] = THP-1 cell cytotoxicity, dose response, cytotoxicity control for non-replicating M. tuberculosis project (AID 489025); type: functional
[5] = Luminescence Cell-Based Dose Response HTS to Identify Activators of Luciferase Translation or Activity in H4 […] Cells. [Related pubchem assays: 1829 (Project Summary), 1814 (Primary HTS)]; type: functional
H4 = test: Luminescence Cell-Based Dose Response HTS to Identify Activators of 5'UTR Stem-Loop Driven Prion Protein mRNA Translation in H4 Neuroglioblastoma Cells. [Related pubchem assays: 1829 (Project Summary), 1814 (Primary HTS)]; type: functional; conditions: Homo sapiens
[6] = biological target: T3, Calpain-2 catalytic subunit (Sus scrofa, UniProt P43367); test: pig calpain II inhibitor potency, dose response, biochemical, fluorogenic peptide substrate (AID 1420); type: functional
T3 sequence (P43367 whole entry): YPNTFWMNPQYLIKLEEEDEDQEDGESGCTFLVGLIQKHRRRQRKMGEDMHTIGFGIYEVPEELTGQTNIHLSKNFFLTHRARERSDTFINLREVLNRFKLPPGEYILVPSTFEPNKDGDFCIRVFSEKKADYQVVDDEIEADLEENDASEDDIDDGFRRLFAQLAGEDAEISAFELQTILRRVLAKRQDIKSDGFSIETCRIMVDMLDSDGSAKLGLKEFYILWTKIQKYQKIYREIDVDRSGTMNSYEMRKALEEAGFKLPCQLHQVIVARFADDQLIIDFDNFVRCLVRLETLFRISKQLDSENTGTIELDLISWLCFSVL

[7] = biological target: Eukaryotic translation initiation factor 4E (Mus musculus, UniProt P63073); test: eIF4E–eIF4G protein interaction inhibitors, dose response, biochemical, TR-FRET (AID 855); type: functional;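 note: potency for disrupting eIF4E binding to eIF4GI seen as loss of FRET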
Chain of Eukaryotic translation initiation factor 4E (P63073 whole entry): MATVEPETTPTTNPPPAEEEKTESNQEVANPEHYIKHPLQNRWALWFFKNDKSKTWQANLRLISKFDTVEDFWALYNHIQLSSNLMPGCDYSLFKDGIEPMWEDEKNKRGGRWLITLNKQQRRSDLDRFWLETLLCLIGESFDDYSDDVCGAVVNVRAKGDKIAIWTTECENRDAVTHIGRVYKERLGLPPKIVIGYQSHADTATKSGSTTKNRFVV

Estrogen receptor beta = Estrogen receptor beta (Homo sapiens, UniProt Q92731);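 note: recombinant ER-beta bound to coactivator SRC1 peptide in presence of estradiol agonist; inhibitors block coactivator peptide binding and lower the FRET signal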
Chain of Estrogen receptor beta (Q92731 whole entry): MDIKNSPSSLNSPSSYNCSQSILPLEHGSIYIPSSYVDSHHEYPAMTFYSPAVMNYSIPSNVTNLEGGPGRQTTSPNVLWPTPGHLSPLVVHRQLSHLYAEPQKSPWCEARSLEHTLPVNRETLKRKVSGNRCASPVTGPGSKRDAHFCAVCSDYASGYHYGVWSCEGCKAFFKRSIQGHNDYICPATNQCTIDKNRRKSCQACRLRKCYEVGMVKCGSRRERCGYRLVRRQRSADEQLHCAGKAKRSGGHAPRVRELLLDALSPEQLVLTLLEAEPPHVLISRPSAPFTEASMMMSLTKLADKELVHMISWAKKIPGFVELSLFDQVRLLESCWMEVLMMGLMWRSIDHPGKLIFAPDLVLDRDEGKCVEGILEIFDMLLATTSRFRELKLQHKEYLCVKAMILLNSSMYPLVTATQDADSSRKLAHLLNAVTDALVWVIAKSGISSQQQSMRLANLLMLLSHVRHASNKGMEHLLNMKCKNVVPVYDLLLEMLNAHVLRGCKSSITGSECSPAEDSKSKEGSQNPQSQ

[8] = biological target: T4, Heat shock factor protein 1 (Mus musculus, UniProt P38532); test: inhibition of MG132-induced HSE-luciferase signal, confirmation, cell-based, NIH3T3, luminescence, dose retest (AID 2382); type: functional;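 note: NIH3T3 fibroblasts with HSF1-driven luciferase reporter stressed by proteasome inhibitor MG132; luminescence from HSF1-driven luciferase expression after 8 hours of MG132 stress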
T4 sequence (P38532 whole entry): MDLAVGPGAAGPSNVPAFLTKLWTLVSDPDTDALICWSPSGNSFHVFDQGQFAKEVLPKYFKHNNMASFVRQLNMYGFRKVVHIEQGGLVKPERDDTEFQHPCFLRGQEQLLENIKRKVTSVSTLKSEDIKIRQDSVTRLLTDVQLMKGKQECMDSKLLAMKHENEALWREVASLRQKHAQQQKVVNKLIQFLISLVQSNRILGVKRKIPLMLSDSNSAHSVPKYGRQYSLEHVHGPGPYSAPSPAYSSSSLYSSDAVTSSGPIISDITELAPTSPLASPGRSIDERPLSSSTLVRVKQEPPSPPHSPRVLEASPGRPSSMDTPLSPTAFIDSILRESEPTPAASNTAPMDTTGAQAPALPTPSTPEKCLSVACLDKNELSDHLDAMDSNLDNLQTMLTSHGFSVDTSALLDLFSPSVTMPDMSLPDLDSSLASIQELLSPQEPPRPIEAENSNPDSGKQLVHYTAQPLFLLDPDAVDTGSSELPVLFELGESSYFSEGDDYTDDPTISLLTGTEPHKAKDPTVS

[9] = biological target: T5, Rac GTPase-activating protein 1 (Homo sapiens, UniProt Q9H0H5); test: MgcRacGAP GTPase-activating activity inhibitors, confirmation, biochemical, ADP Hunter fluorescence, primary and confirmatory (AID 624330); type: functional
T5 sequence (Q9H0H5 whole entry): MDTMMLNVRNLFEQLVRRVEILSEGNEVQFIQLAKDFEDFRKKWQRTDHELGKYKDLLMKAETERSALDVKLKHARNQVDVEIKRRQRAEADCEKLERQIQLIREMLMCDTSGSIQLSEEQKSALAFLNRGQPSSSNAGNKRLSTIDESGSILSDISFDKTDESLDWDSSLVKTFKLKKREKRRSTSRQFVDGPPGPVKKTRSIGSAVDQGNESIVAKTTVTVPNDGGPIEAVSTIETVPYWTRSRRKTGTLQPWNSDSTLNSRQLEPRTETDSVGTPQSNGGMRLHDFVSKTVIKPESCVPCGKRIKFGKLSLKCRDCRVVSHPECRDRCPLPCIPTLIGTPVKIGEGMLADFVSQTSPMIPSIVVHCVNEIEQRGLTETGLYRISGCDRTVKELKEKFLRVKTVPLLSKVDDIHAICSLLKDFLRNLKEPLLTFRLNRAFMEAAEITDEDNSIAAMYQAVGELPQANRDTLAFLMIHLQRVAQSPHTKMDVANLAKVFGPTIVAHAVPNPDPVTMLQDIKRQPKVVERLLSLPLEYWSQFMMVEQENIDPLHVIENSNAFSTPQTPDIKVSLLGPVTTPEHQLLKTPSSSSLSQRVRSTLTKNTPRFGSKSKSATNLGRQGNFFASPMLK

[10] = intracellular Trypanosoma cruzi inhibitors in host cells – cell-based, plate reader, cherry-pick samples, set 3, dose response (AID 651818); type: functional;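 note: compounds incubated with infected cells for about four days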
[11] = biological target: T6, Ubiquitin-conjugating enzyme E2 N (Homo sapiens, UniProt P61088); type: functional;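 note: Dose-response confirmation in a TR-FRET assay detecting UBC13-driven polyubiquitin chain formation, inhibition measured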
T6 sequence (P61088 whole entry): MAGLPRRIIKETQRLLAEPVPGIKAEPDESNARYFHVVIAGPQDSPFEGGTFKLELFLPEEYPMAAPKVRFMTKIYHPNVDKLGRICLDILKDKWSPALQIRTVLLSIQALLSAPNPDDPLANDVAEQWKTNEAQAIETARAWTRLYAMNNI

BJ [12] = test: cytotoxicity toward BJ-TERT-LT-ST fibroblasts, dose response, cell-based, RAS-independent, luminescence (AID 1935); type: functional; conditions: Homo sapiens;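 note: BJ fibroblasts immortalized with TERT plus LT and ST oncogenes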
[13] = cytotoxicity toward DRD oncogenic fibroblasts, dose response, cell-based, non-viral oncogenic, luminescence (AID 1934); type: functional; conditions: Homo sapiens
[14] = growth suppression of beta-catenin-knockout colon cells, dose response, cell-based, HCT116, human colon tumor (AID 1045); type: functional;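 note: HCT116 colon tumor cells with beta catenin knocked out; cells exposed to compound for 60 hours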
[15] = biological target: T7, Short transient receptor potential channel 4 (Mus musculus, UniProt Q9QUQ5); test: mouse TRPC4 channel activators, dose response, cell-based, HEK293 TRPC4/mu-opioid, Fluo-4 calcium (AID 434937); type: functional
T7 sequence (Q9QUQ5 whole entry): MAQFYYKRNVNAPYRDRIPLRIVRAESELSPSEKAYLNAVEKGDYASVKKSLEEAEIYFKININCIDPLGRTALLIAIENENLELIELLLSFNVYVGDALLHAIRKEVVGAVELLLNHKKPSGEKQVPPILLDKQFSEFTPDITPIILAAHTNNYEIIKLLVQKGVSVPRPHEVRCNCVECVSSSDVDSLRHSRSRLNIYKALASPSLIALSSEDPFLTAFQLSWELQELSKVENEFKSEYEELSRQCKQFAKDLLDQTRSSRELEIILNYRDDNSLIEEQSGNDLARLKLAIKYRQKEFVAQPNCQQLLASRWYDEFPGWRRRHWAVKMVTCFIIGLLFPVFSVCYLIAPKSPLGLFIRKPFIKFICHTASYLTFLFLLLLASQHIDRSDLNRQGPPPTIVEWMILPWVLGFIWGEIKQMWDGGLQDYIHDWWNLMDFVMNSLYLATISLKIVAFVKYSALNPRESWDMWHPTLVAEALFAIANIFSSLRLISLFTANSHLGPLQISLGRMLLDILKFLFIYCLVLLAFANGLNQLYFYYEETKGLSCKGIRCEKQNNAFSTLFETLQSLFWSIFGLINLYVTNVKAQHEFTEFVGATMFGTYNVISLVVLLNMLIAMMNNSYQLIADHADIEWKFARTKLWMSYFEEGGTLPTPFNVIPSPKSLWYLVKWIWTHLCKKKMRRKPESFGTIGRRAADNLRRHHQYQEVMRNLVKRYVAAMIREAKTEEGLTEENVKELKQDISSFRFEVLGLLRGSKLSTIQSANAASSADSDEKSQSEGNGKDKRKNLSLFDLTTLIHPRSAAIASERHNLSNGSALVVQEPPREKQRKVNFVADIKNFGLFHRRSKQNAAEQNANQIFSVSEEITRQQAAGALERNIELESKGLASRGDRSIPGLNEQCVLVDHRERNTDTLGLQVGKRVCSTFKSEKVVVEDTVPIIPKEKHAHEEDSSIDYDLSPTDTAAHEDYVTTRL

BJ [16] = test: cells; type: functional, cell-based; conditions: Homo sapiens
BJ [17] = test: cytotoxicity toward BJ-TERT fibroblasts, dose response, cell-based, RAS-independent, luminescence (AID 1933); type: functional; conditions: Homo sapiens
[18] = growth suppression of PTEN-null colon cells, dose response, cell-based, HCT116 PTEN knockout (AID 1047); type: functional;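 note: HCT116 colon tumor cells with PTEN knocked out; cells exposed to compound for 60 hours before readout; potency for loss of cell viability measured by luminescence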

SMILES: COc1ccc(-c2nc(C(=O)NCCCN3CCOCC3)cc3c2[nH]c2ccccc23)cc1OC
- AC50 [1]: 13.7 µM (active)
- AC50 [2]: 4.84 µM (active)

SMILES: CC(=O)Nc1cc(-c2cccc(C(=O)NCCN(C)C)c2)cn2c(-c3ccc(S(C)(=O)=O)cc3)cnc12
- AC50 [1]: 25.8 µM (active)
- AC50 [2]: 2.7 µM (active)

SMILES: O=C(CCC1CCCC1)Nc1nnc[nH]1
- IC50 [3]: > 10 µM (inconclusive)

SMILES: O=C(CCC1CCCC1)Nc1ccc(Br)cn1
- CC50 [4]: > 40 µM (active)
- EC50 [5]: 0.805 µM (active)
- EC50 (H4): > 120 µM (not active)

SMILES: Cn1c(N)c(C(=O)COC(=O)CC2CC3CCC2C3)c(=O)n(C)c1=O (configuration not stated)
- IC50 [6]: 2.16 µM (active)

SMILES: Cc1ccc(C)c(SCC(=O)NC(=O)Nc2ccc3c(c2)OCCO3)c1
- IC50 [6]: < 0.4 µM (not active)

SMILES: Oc1cc2c(cc1C(c1ccc(Br)cc1)N1CCCC1)OCO2 (configuration not stated)
- IC50 [7]: 50 µM (inactive)

SMILES: Cc1n[nH]c(C)c1S(=O)(=O)N(CC(=O)N1CCc2ccccc21)c1ccc(C(C)C)cc1
- IC50 (Estrogen receptor beta): > 50 µM (not active)

SMILES: Cc1nc2nc(C)c(C)nc2nc1C
- AC50 [1]: 34.7 µM (active)

SMILES: Cn1c2c(c(=O)n(C)c1=O)C(CC(=O)Nc1ccccc1)C(=O)N2 (configuration not stated)
- IC50 [6]: 2.62 µM (not active)
- EC50 [8]: > 195 µM (not active)

SMILES: COc1ccccc1CN1CCN(C(=O)c2ccncc2)CC1
- IC50 [7]: > 64 µM (inactive)
- IC50 [9]: 120 µM (active)

SMILES: C[C@@H]1CCCCO[C@@H](CN(C)Cc2ccc(Cl)c(Cl)c2)[C@@H](C)CN([C@H](C)CO)C(=O)c2cc(NC(=O)Nc3ccc4c(c3)OCO4)ccc2O1
- AC50 [10]: 3.68 µM (active)

SMILES: CCC[C@@H](CN1CCC[C@H]1CN1C(N)=NC[C@H]1CC(C)C)N1C[C@@H]([C@H](C)CC)N(CCc2ccc(Cl)c(Cl)c2)C1=N
- IC50 [11]: > 20 µM (inactive)
- AC50 [2]: 12.4 µM (active)

SMILES: CCN(CC)CCCNC(=O)c1cc2c(-c3ccc(Cl)cc3)nn(C)c2s1
- EC50 (BJ [12]): 12.1 µM (inconclusive)
- EC50 [13]: 10.4 µM (active)
- EC50 [14]: 4.29 µM (active)
- EC50 [15]: 0.335 µM (active)
- AC50 [1]: 35.9 µM (active)
- EC50 (BJ [16]): 21.8 µM (active)
- EC50 (BJ [17]): 9.1 µM (active)
- EC50 [18]: 5.12 µM (active)

SMILES: COc1ccc(C(C)=O)c2c(O)cccc12
- IC50 [6]: 0.917 µM (not active)

SMILES: Clc1ccc(OCCCn2cncn2)cc1Cl
- IC50 [7]: > 64 µM (inactive)

SMILES: CC(C)Cc1ccc(C(C)C(=O)OCC(=O)c2c[nH]c3ccccc23)cc1 (configuration not stated)
- IC50 [6]: 6.65 µM (not active)

SMILES: CN(C)CCCN=C(S)N(CCN(C)C)Cc1cc2cc3c(cc2nc1O)OCCO3
- AC50 [2]: 5.91 µM (active)

From ChEMBL document CHEMBL1201862, “PubChem BioAssay data set” (2004)
